The values that follow come from PubChem BioAssay AID1963438 (Molecular Pharmacology Branch, DTP, NCI, 2024).

In this assay the test system is NCI-H510 multicellular tumor spheroid growth, % test/control. Put plainly: Anticancer human tumor NCI-H510 cell line growth inhibition [Asc].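 On all read-outs here: spheroids exposed to agents for 7 days.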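 On viability, T/C: 100% = DMSO vehicle control wells.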 The note with it: for viability, T/C: stronger effect = lower value. The protocol: Multicellular complex tumor spheroid response to apoptosis pathway targeting inhibitors Alrizomadlin, Pelcitoclax, and Dasminapant in combination with a variety of drugs and investigational agents in selected tumor cell lines
The MDM2 inhibitor alrizomadlin, the Bcl-2/Bcl-xL inhibitor pelcitoclax, and the IAPs inhibitor dasminapant were evaluated both individually and in combination with standard of care and investigational anticancer small molecules within a complex spheroid model of solid tumors. . Complex spheroids include a stromal component modeled by human endothelial cells (HUVEC) and fibroblasts modeled by human mesenchymal stem cells (MSCs). The concentration ranges selected for each drug and investigational agent were based upon clinically achievable concentrations if the clinical Cmax of the agent was known.
Compounds. The drugs and investigational agents: alrizomadlin (APG-115; NSC831270), pelcitoclax (APG-1252; NSC835773), dasminapant (APG-1387;NSC834197), TAK-243 (NSC785004), copanlisib (NSC809693), olaparib (NSC753686), talazoparib (NSC767125), cobimetinib (NSC 768068), eltanexor (KPT-8602, NSC 794443), abemaciclib (NSC 768073), sotorasib (NSC818433), adagrasib (NSC 831453), MRTX-1133 (NSC 836407), Iadademestat (ORY1001, NSC 806812), and RMC-4630 (NSC839698), were obtained from the NCI Developmental Therapeutics Program Chemical Repository. The FDA-approved anticancer drug set is available from the Developmental Therapeutics Program at https://dtp.cancer.gov/organization/dscb/obtaining/available plates.htm. […] The stock solutions were prepared in dimethyl sulfoxide (DMSO, Sigma-Aldrich, St. Louis, MO, cat. D2650) at 800-fold the tested concentration and stored at -70 degrees C prior to their use. All drugs and investigational agents were tested over a range starting from a high concentration at or near the clinical Cmax and decreasing in half-log increments. If the clinical Cmax for an agent had not been determined, the highest concentration tested was 10 microM.
The patient-derived cancer (PDC) cell lines include five colon adenocarcinomas: 186277-243-T-J2-PDC, 616215-338-R-J1-PDC, 439559-082-T-J2-PDC, 463943-066-T-J2-PDC, and 519858-162-T-J1-PDC; three pancreatic carcinomas: 323965-272-R-J2-PDC, 521955-158-R6-J3-PDC, and 521955-158-R2-J5-PDC; two uterine sarcomas: 327498-152-R-J2-PDC and 993429-296-R-J1-PDC; two rhabdomyosarcomas: 755483-174-R-J1-PDC and 772245-204-R-J1-PDC; two soft tissue sarcomas: 126254-015-R-J1-PDC and 494315-158-R-J1-PDC; two malignant fibrous histiocytomas: 317291-083-R-J1-PDC and 596521-263-R-J1-PDC; two breast carcinomas: 171881-019-R-J1-PDC and 885512-296-R-J2-PDC; and one ovarian carcinoma: 6556581-035-R-J-PDC were obtained from the NCI PDMR, (https://pdmr.cancer.gov). The established cell lines HSSY-2 synovial sarcoma (RRID:CVCL 8719), SYO-1 synovial sarcoma (RRID:CVCL_7146), MPNST malignant peripheral neural sheath tumor were obtained from the Sloan Kettering Institute. The following established cell lines were purchased from the American Type Culture Collection (ATCC, Manassas, VA), Sor the received from the NCI repository:, PANC-1 pancreatic carcinoma (CRL-1469, RRID:CVCL_0480), OVCAR-5 ovarian carcinoma (RRID:CVCL_1628), OVCAR-8 ovarian carcinoma (RRID:CVCL_1629), , MCF-7 breast carcinoma (CRL-12584, RRID:CVCL_0031), MDA-MB-231 breast carcinoma (CRL-12532, RRID:CVCL_0062), NCI-H1876 small cell lung carcinoma (CRL-5902, RRID:CVCL_1503), NCI-H510A small cell lung carcinoma (HTB-184, RRID:CVCL_1565), NCI-H1417 (CRL-5869, RRID:CVCL_1469), and NCI-H196 small cell lung carcinoma (CRL-5823, RRID:CVCL_1509). Dr. Peter Houghton (Greehey Children's Cancer Research Institute, University of Texas Health Science Center, San Antonio, TX) provided Rh-18 rhabdomyosarcoma (RRID:CVCL_1659). Pooled donor human umbilical vein endothelial cells (HUVEC, Lonza, cat. CC-2519) and human mesenchymal stem cells (hMSC, Lonza, cat. PT-2501) were purchased from Lonza (Walkersville, MD).
Cell Culture. […]

One may read the viability, T/C as the ratio of treated to control. In general, IC50 refers to the concentration at which inhibition is half-maximal.

Where “and” joins values, the source holds several entries; their conditions need not be identical. Equal values may be shown once. A value given as a limit tells only on which side of the number the result lay.

Turning to `C#Cc1c(F)ccc2cc(O)cc(-c3ncc4c(N5CC6CCC(C5)N6)nc(OCC56CCCN5CC(F)C6)nc4c3F)c12` (centres undefined), the viability, T/C runs as follows: (compound 0.0316 µM) 111% and 93.4% and 94.4%; (compound 0.1 µM) 104% and 103% and 112%; (compound 0.316 µM) 99.3% and 99.1% and 92.8%; (compound 1 µM) 94.8% and 105% and 84.2%; (compound 3.16 µM) 106% and 112% and 123%; (compound 10 µM) 99.8% and 88.4% and 92.8%. Under “curve of compound”, the IC50 is greater than 10 µM.

Turning to `NC(=O)C(=Cn1cnc(-c2cc(C(F)(F)F)cc(C(F)(F)F)c2)n1)c1cncnc1`, the viability, T/C (compound 0.000949 µM) is 91.3% and 79.1% and 81.8%; the viability, T/C (compound 0.003 µM) was 95.1% and 92.5% and 90.3%; the viability, T/C (compound 0.00949 µM) was 97.5% and 68.2% and 97.9%; the viability, T/C (compound 0.03 µM) is 87.7% and 81.1% and 98%; the viability, T/C (compound 0.0949 µM) is 76% and 44% and 86.5%; the viability, T/C (compound 0.3 µM) is 14.6% and 47% and 69.7%. Further, the IC50 (curve of compound) was 0.154 µM and 0.0817 µM and > 0.3 µM.

Consider `O=C(c1cc(Cc2n[nH]c(=O)c3ccccc23)ccc1F)N1CCN(C(=O)C2CC2)CC1` + CCN1C(C(=O)NC23CCC(C(=O)O)(CC2)CC3)C(c2cccc(Cl)c2F)C2(C(=O)Nc3cc(Cl)ccc32)C12CCCCC2, for which the IC50 worked out at 1.33 µM (curve of first compound, second compound 0.03 µM); 2.02 µM (curve of first compound, second compound 0.0949 µM); 1.36 µM (curve of first compound, second compound 0.3 µM); 2.62 µM (curve of first compound, second compound 0.949 µM); 2.55 µM (curve of first compound, second compound 3 µM). Also, the viability, T/C reads like this: (second compound 0.03 µM, first compound 0.0316 µM) 77.3%; (second compound 0.03 µM, first compound 0.1 µM) 101%; (second compound 0.03 µM, first compound 0.316 µM) 100%; (second compound 0.03 µM, first compound 1 µM) 60.9%; (second compound 0.03 µM, first compound 3.16 µM) 18.1%; (second compound 0.03 µM, first compound 10 µM) 8.44%. Moreover, the viability, T/C is 81.3% (second compound 0.0949 µM, first compound 0.0316 µM); 106% (second compound 0.0949 µM, first compound 0.1 µM); 105% (second compound 0.0949 µM, first compound 0.316 µM); 77.5% (second compound 0.0949 µM, first compound 1 µM); 32.7% (second compound 0.0949 µM, first compound 3.16 µM); 19.7% (second compound 0.0949 µM, first compound 10 µM). The viability, T/C (second compound 0.3 µM, first compound 0.0316 µM) is 79.8%; the viability, T/C (second compound 0.3 µM, first compound 0.1 µM) was 102%; the viability, T/C (second compound 0.3 µM, first compound 0.316 µM) was 95.7%; the viability, T/C (second compound 0.3 µM, first compound 1 µM) was 57%; the viability, T/C (second compound 0.3 µM, first compound 3.16 µM) is 25.5%; the viability, T/C (second compound 0.3 µM, first compound 10 µM) is 8.82%. Further, the viability, T/C (second compound 0.949 µM, first compound 0.0316 µM) was 109%; the viability, T/C (second compound 0.949 µM, first compound 0.1 µM) was 99.8%; the viability, T/C (second compound 0.949 µM, first compound 0.316 µM) was 97.5%; the viability, T/C (second compound 0.949 µM, first compound 1 µM) is 86.7%; the viability, T/C (second compound 0.949 µM, first compound 3.16 µM) was 42.5%; the viability, T/C (second compound 0.949 µM, first compound 10 µM) was 5.78%. For the same compound, the viability, T/C runs as follows: (second compound 3 µM, first compound 0.0316 µM) 94.5%; (second compound 3 µM, first compound 0.1 µM) 78.1%; (second compound 3 µM, first compound 0.316 µM) 95.1%; (second compound 3 µM, first compound 1 µM) 93.3%; (second compound 3 µM, first compound 3.16 µM) 40.8%; (second compound 3 µM, first compound 10 µM) 22.3%.
